# Laboratory results taken from US12247972B2 (priority 2018, dated 2025).
# Experiments:
# [1] = tested on: NG108-15 cells (endogenous glutamate receptor); assay: Intracellular potential recording of cultured nerve cells with C-M magnet electrode (glutamate response); type: cell-based; conditions: final external fluid concentration 800 μM
# Experimental: NG108-15 cells were used for the purpose of showing that recording is possible from cultured nerve cells. NG108-15 cells (neuroblastoma-glioma hybrid cells) were cultured in a culture medium containing DMEM (Sigma-Aldrich), HAT supplement (Thermofisher) and 10% FBS (Biowest). NG108-15 was seeded on a cover glass that was coated with 0.1% Polyethyleneimine (pH8.4, 150 mM Sodium Tetra-Borate (Wako)), and cultured in the culture medium, in which FBS concentration was reduced to 5% from the above culture medium, and the nerve differentiation was induced by adding 500 μM Ibuprofen (Wako). […]
# PEI and PEG-gold coated magnetic nanoparticles were mixed and left at room temperature for 3 hours. This mixed solution is moved to the cell-adhesive surface of the neodymium magnet and left for additional 15 minutes to magnetically bond the gold nanoparticles to the neodymium magnet electrode.
# The above nanoparticle-bonding magnet electrode was placed on the cultured cells placed on an iron plate. […]
# In addition to the spontaneous action potential, the following experiment was conducted to confirm whether the neuronal activity by the neurotransmitter glutamate can be recorded. […] Glutamic acid was administered to the extracellular fluid (final external fluid concentration 800 μM), and the response mediated by glutamate receptors was recorded. […]
# NG108-15 cells = assay: Intracellular potential recording in differentiated cultured nerve cells with MagEle not isolated from external fluid; type: cell-based; conditions: 3 mM; after 20 μM Veratridine
# Experimental: In this experiment, the cultured nerve cells (NG108-15 cells) used in Example 3 were induced and differentiated into nerves under the same differentiation conditions as in the experiment example 3. In the same manner as in Example 3, the MagEle (magnet electrode) is moved from above the target cell toward the cell, and the conductive gold-coated magnetic nanoparticles adsorbed on the MagEle are adhered to the cell membrane to penetrate it. Then, the intracellular potential was measured by connecting the MagEle to the (+) pole and a conductor provided on an insulator (parafilm film) that completely covers the upper surface of the MagEle to the ground. At that time, although the insulator completely covered the top and sides of the (+) pole MagEle, the surface facing the cover glass, to which the cells adhere was not covered, and the cells were not isolated from the external fluid (FIG. 19).
# The NG108-15 cells were differentiated by culturing for 3 weeks in DMEM/HAT medium containing 2% FBS supplemented with Forskolin (10 μM).
Compound,time for glutamate-induced membrane potential change to return to baseline ([1]; decay due to desensitization),membrane potential response mediated by glutamate receptors ([1]; neural differentiation induction for 2 days),spontaneous action potential induced by Veratridine (NG108-15 cells)
"N[C@@H](CCC(=O)O)C(=O)O [Glutamate, Glutamic acid]",about 90 seconds,depolarization (upward change) response of the membrane potential,–
CCN(CC)CC(=O)Nc1c(C)cccc1C [Lidocaine],–,–,suppressed
